{"source": "patent US20240299394A1", "about": "“TARGETED TREATMENT FOR SKIN FRAGILITY DISEASES” (University of Washington, priority 2023, published 2024)", "format_in_all_cases": "cell-based, human", "key": {"[1]": {"tested_on": "organotypic epidermis of NHEKs", "assay": "Organotypic epidermis treated with B-RAF inhibitors (H&E, immunostaining)", "conditions": "Dab or Vem alone, 48 hours", "description": "Inhibitors were used at the following concentrations: Dabrafenib (1 μM), vemurafenib (10 μM), trametinib (1 μM).\nParaffin-embedded formalin-fixed tissue cross-sections on glass slides were incubated at 65° C. for 2 hours. Sections were prepared for staining by immersion in 3 baths of xylenes (Fisher) for 5 minutes each, followed by 3 baths of 95% ethanol for 5 minutes each, then 70% ethanol for 5 minutes, and finally 3 baths of PBS for 5 minutes each."}, "NHEKs": {"tested_on": "NHEKs", "assay": "Immunofluorescence of plakoglobin / desmosomal protein localization", "conditions": "B-RAF inhibitor alone, 24 hours in E-medium", "description": "Keratinocytes were grown to confluency in 35 mm glass-bottom cell culture dishes (MatTek of Ashland, MA, Cat. #P35G-1.5-20-C). For staining keratins and desmosomal proteins, cells were fixed in ice-cold 100% methanol at −20° C. for 2 minutes, allowed to dry, then re-hydrated in PBS. For staining other proteins, cells were fixed in 4% paraformaldehyde for 10 minutes at 37° C. Fixed cells were then incubated with blocking buffer [0.5% (w/v) bovine serum albumin (BSA, Sigma), 10% (w/v) normal goat serum (NGS, Sigma) in PBS] for 30 min at 37° C. Cells were then washed with PBS. Primary antibodies were diluted in 0.5% (w/v) BSA in PBS and incubated on the cells overnight at 4° C. Primary antibody dilutions were as follows: chicken anti-plakoglobin (1:1000). […]\nImages were acquired on a Hamamatsu ORCA-FusionBT sCMOS camera (Hamamatsu of Hamamatsu City, Japan) using a Yokogawa W1 spinning-disk confocal (SDC) system (Yokogawa of Musashino, Tokyo, Japan) on a Nikon Ti2 microscope (Nikon of Minato City, Tokyo, Japan). Samples were illuminated using 405, 488, 561, and 640 nm laser excitation lines and fluorescence was detected using a 60×1.2 numerical aperture (NA) water objective (Nikon) with standard emission filters."}, "ERK": {"tested_on": "ERK", "assay": "ERK biosensor (ERK-KTR-mClover) live imaging", "conditions": "Dab or Vem alone, 24 h, 1.2 mM calcium", "description": "For live imaging of the ERK biosensor, NHEKs were transduced with ERK-KTR-mClover (Addgene Cat. #59150). HEK293FT cells were grown in complete DMEM, then transfected with 4 μg pLenti-CMV-PuroDEST-ERK-KTR-mClover DNA plus 12 μl FuGENE 6 (Promega of Madison, WI, Cat. #E2691) in 800 μL of Opti-MEM (Thermo-Fisher Cat. #31985070), which was added to the cells and left overnight. Lentiviral supernatants were collected the next day and polybrene (Sigma Cat. #H9268) was added at a concentration of 4 μg/mL. M154 was removed from NHEKs and replaced with viral medium for 1 hour at 37° C. Cells were then washed in PBS and placed back in their normal medium and expanded in culture.\nERK-KTR-mClover-transduced cells were seeded into 35 mm glass-bottom dishes in low calcium medium (0.31 mM) and grown to confluency. […] Using Fiji (Fiji software, https://github.com/fiji/fiji), the nuclear region was encircled with the polygon tool and the “Measure” function was used to calculate the mean fluorescence intensity; after using the “Cut” function to remove the nuclear region, then remaining cytoplasmic region was encircled with the polygon tool and the “Measure” function was used to calculate the mean fluorescence intensity. The ERK activity index was calculated as the ratio of the cytoplasmic integrated fluorescence intensity (active) to the nuclear integrated fluorescence intensity."}}, "data": [{"compound": "CC(C)(C)c1nc(-c2cccc(NS(=O)(=O)c3c(F)cccc3F)c2F)c(-c2ccnc(N)n2)s1", "note": "[dabrafenib]", "values": [{"measurement": "localization of plakoglobin to cell-cell junctions", "setting": "[1]", "result": "reduced localization of plakoglobin to cell-cell junctions"}, {"measurement": "localization of desmosomal proteins", "setting": "NHEKs", "result": "induced mislocalization of desmosomal proteins"}, {"measurement": "ERK activity (biosensor)", "setting": "ERK", "result": "induced ERK activation"}]}]}
